Read-outs that look alike come from different tables or passages of the source.
Tests used:
[1] = molecular target: Toll-like receptor 4 (TLR4) (Homo sapiens, UniProt O00206+Q9Y6Y9); conditions: cited from earlier work
[2] = test system: neuropathic pain; conditions: animal models; cited from earlier work
[3] = test system: opioid receptors; conditions: cited from earlier work
[4] = test system: neuropathic back pain; test: Naltrexone and clonidine alone and in combination in a human subject: pain treatment effect, weight to weight synergy; type: in vivo; conditions: one hour post-dose, naltrexone 4.5 mg alone, clonidine 0.3 mg alone, combinations with naltrexone 2.25 mg
Method: (§1) Naltrexone and clonidine were evaluated alone and in combination on a human subject with the purpose of finding whether or not a combination of the two compounds offers synergistic advantage. Two aspects were evaluated for synergy: one aspect was pain treatment effect comparing the amounts used weight to weight, and the other aspect was an assessment of synergy of side effects.
(§2) The components of the combination were administered to a subject in the following manner: naltrexone 4.5 mg was given in the morning. The clonidine dose was divided into two doses, a dose of 0.1 mg in the morning and a dose of 0.2 mg at bedtime. […] The pain treatment effect of naltrexone and clonidine was evaluated after one hour post-dose.
To determine synergy, the amounts of naltrexone and clonidine administered alone were compared to the combination combined amounts.

[5] = test system: trigeminal neuralgia; test: Case study trigeminal neuralgia, open label, pain intensity scores and percent relief (baseline days 1-6, study drug days 7-30); type: in vivo, human; conditions: from pain level 9
Text: Trigeminal neuralgia, also known as suicide disease, is a neuropathic disorder characterized by episodes of intense pain in the face, originating from the trigeminal nerve. It has been described as among the most painful conditions known to mankind. This case study is of a person with a three month history of trigeminal neuralgia. […] The pain involved the right check, upper jaw and the upper front teeth. The pain was constant and described as burning, stinging and aching. It was aggravated by eating, brushing teeth, flossing, chewing and talking. The subject's pain level on average was 5, but it would peak to 9. Ibuprofen brought the pain level from 9 to 7 for two hours, vicoden brought their pain level from 9 to 5, but relief lasted only three to four hours. The subject entered open label study for 3 weeks. […].

[6] = Naltrexone and clonidine alone and in combination in a human subject: side effects over 24 hours; conditions: naltrexone 4.5 mg alone, clonidine 0.3 mg alone, combinations with naltrexone 2.25 mg
Method: as §1, §2

[7] = 0.5 mg, 42 IBS patients; cited from earlier work
[8] = cited from earlier work
[9] = full dose; cited from earlier work
[10] = test system: leg pain; test: Case study leg pain caused by L-5 radiculopathy; type: in vivo, human

Chain of Toll-like receptor 4 (TLR4) (O00206 24-839, species assumed): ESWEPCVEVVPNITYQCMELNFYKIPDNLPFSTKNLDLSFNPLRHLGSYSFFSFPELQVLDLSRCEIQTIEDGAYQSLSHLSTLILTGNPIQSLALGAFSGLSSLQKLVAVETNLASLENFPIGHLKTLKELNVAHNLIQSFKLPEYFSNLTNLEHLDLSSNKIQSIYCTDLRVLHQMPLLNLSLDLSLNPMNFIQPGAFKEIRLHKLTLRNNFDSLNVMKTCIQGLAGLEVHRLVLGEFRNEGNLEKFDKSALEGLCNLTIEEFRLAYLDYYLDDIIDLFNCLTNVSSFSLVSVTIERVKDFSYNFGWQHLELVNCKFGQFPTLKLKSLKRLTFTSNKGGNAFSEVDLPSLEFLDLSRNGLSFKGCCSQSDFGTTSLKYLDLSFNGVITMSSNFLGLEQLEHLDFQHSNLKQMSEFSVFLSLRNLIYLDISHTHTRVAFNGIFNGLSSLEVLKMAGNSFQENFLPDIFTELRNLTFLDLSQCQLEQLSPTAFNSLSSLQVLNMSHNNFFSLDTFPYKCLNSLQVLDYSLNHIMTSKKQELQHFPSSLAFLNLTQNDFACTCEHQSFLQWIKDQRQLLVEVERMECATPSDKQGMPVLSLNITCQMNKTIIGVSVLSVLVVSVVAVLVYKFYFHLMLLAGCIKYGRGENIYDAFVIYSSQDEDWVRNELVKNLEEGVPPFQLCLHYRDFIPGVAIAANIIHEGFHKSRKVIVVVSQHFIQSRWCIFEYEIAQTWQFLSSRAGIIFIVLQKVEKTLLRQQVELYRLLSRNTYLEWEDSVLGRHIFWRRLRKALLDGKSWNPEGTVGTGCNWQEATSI
Chain of Toll-like receptor 4 (TLR4) (Q9Y6Y9 17-160 limits assumed, species assumed): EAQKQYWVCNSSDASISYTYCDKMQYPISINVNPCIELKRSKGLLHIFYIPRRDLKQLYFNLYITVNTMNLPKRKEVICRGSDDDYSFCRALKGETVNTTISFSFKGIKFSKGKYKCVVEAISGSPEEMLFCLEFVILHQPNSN

For `C=CCN1CC[C@]23c4c5ccc(O)c4O[C@H]2C(=O)CC[C@]3(O)[C@H]1C5` [(+)-naloxone], the “action at TLR4” value [1] is given as “selective antagonists of TLR4” and the “treating symptoms of neuropathic pain” value [2] is given as “effective”.
For `O=C1CC[C@]2(O)[C@@H]3Cc4ccc(O)c5c4[C@]2(CCN3CC2CC2)[C@@H]1O5` [(+)-naltrexone], the “action at TLR4” value [1] is given as “selective antagonists of TLR4”, the “treating symptoms of neuropathic pain” value [2] is given as “effective” and the “affinity for opioid receptors” value [3] is given as “lack affinity”.
In the case of `Clc1cccc(Cl)c1N=C1NCCN1` [Clonidine, clonidine], the “% reversal of pain” value [4] is reported as 50%.
For `CC(C)Cc1ccc(C(C)C(=O)O)cc1` (centres unmarked) [Ibuprofen], the “pain level with previous medication” value [5] was 7.
In the case of `O=C1CC[C@@]2(O)[C@H]3Cc4ccc(O)c5c4[C@@]2(CCN3CC2CC2)[C@H]1O5` [Naltrexone, naltrexone], the “% reversal of pain” value [4] is given as 100%, the side effects [6] is given as “high incidence of alertness, insomnia and anxiety” and the side effects [7] is given as “no side effects were reported”. For the same compound, the “action at TLR4” value [1] was “antagonists for TLR4”, the Anxiety frequency ([8]; 2.5 mg daily) was 11.9% and the Diarrhea frequency ([8]; 2.5 mg daily) was 6.0%. The Muscle pain frequency ([8]; 2.5 mg daily) was 4.5%, the Anxiety frequency ([8]; 5.0 mg daily) was 21.7% and the Diarrhea frequency ([8]; 5.0 mg daily) was 13.0%. For the same compound, the Muscle pain frequency ([8]; 5.0 mg daily) was 15.2%, the “side effects that were short-lived” value ([8]; 24 patients, of those with side effects) was 32.4% and the “Abdominal pain, Percentage of Participants” value ([8]; 121 patients) was 11.6%. The “Anorexia, Percentage of Participants” value ([8]; 121 patients) was 8.3%, the “Anxiety, Percentage of Participants” value ([8]; 121 patients) was 15.7% and the “Diarrhea, Percentage of Participants” value ([8]; 121 patients) was 8.3%. For the same compound, the “Dizziness, Percentage of Participants” value ([8]; 121 patients) was 10.7%, the “Drowsiness, Percentage of Participants” value ([8]; 121 patients) was 11.6% and the “Headache, Percentage of Participants” value ([8]; 121 patients) was 11.6%. For the same compound, the “Insomnia, Percentage of Participants” value ([8]; 121 patients) was 8.3%, the “Mood change, Percentage of Participants” value ([8]; 121 patients) was 3.3% and the “Muscle pain, Percentage of Participants” value ([8]; 121 patients) was 8.3%. The “Nausea, Percentage of Participants” value ([8]; 121 patients) was 12.4%, the “No side effects, Percentage of Participants” value ([8]; 121 patients) was 38.8% and the “Terminated Naltrexone because of side effects” value ([8]; 121 patients) was 16.5%. For the same compound, the “Trouble concentrating, Percentage of Participants” value ([8]; 121 patients) was 1.7%, the “Vivid dreams, Percentage of Participants” value ([8]; 121 patients) was 5.0% and the “Total side effects, Percentage of Participants” value (“Total side effects, Percentage” below) ([8]; 121 patients, listed as LDN) was 61%. For the same compound, the “Total side effects, Percentage” value ([8]; 121 patients, listed as Low Dose Naltrexone) was 61.2%, the “Total side effects, Percentage” value ([8]; 121 patients, listed as low dose Naltrexone) was 61/2 and the “incidence of nervousness, insomnia, and anxiety” value ([8]; low dose) was “double digit incidence”. The “incidence of nervousness, insomnia, and anxiety” value [9] was “single-digit incidence”.
For `CN1CC[C@]23c4c5ccc(O)c4O[C@H]2[C@@H](O)C=C[C@H]3[C@H]1C5` [morphine], the “action at TLR4” value [1] is given as “TLR4 agonists”.
For `C=CCN1CC[C@]23c4c5ccc(O)c4O[C@H]2C(=O)CC[C@@]3(O)[C@H]1C5` [naloxone], the “action at TLR4” value [1] is given as “antagonists for TLR4”.
For Etanercept, the “duration of relief from previous treatment” value ([10]; three perispinal injections) was “two” and the “relief from previous treatment” value ([10]; three perispinal injections) was 10%.
In the case of botulinum toxin, the “duration of relief from previous treatment” value ([10]; in vivo) is reported as “two” and the “relief from previous treatment” value ([10]; in vivo) is reported as 10%.

Reference: patent US20130310412A1, “Combinations of an Opioid/TLR4 Antagonist and a Direct-Acting Alpha-2 Adrenergic Agonist for Use in the Treatment of Pain” (priority 2010, published 2013)
